According to ChEMBL document CHEMBL4368936, “Discovery and structure-activity relationship study of phthalimide-phenylpyridine conjugate as inhibitor of Wnt pathway” (Bioorg Med Chem Lett, 2019):

How the values were obtained:
Mus musculus = species on record: Mus musculus; test: Inhibition of Wnt/beta-catenin pathway in mouse L Wnt3A cells at 10 uM after 48 hrs by TOP-flash dual reporter gene assay relative to control; format: cell-based
[1] = Inhibition of Wnt/beta-catenin pathway in mouse L Wnt3A cells after 48 hrs by TOP-flash dual reporter gene assay; format: cell-based; settings: L Wnt-3A

SMILES | inhibition (Mus musculus) | IC50 [1]
O=C(CCCN1C(=O)c2cc(Cl)c(Cl)cc2C1=O)Nc1ccc(-c2ccccc2)cn1 | -8% | –
O=C(CCCN1C(=O)c2ccc([N+](=O)[O-])cc2C1=O)Nc1ccc(-c2ccccc2)cn1 | 19% | –
Cc1cc(-c2ncc(CC(=O)Nc3ccc(-c4cnccn4)cn3)cc2C)ccn1 [WNT-974] | 93% | 0.00057 µM
O=C(CCCN1C(=O)c2cccc(Cl)c2C1=O)Nc1ccc(-c2ccccc2)cn1 | 46% | –
Cc1ccc2c(c1)C(=O)N(CCCC(=O)Nc1ccc(-c3ccccc3)cn1)C2=O | 20% | –
Cc1cccc2c1C(=O)N(CC(=O)Nc1ccc(-c3ccccc3)cn1)C2=O | 76% | 0.28 µM
CC(C)(C)c1ccc2c(c1)C(=O)N(CCCC(=O)Nc1ccc(-c3ccccc3)cn1)C2=O | 23% | –
O=C(CCCN1C(=O)c2c(Cl)c(Cl)c(Cl)c(Cl)c2C1=O)Nc1ccc(-c2ccccc2)cn1 | -5% | –
O=C(CCCN1C(=O)c2ccc(Br)cc2C1=O)Nc1ccc(-c2ccccc2)cn1 | 18% | –
O=C(CCCN1C(=O)c2ccc(C#Cc3ccccc3)cc2C1=O)Nc1ccc(-c2ccccc2)cn1 | 7% | –
O=C(CCCN1C(=O)c2ccc(F)cc2C1=O)Nc1ccc(-c2ccccc2)cn1 | 20% | –
Cc1cccc2c1C(=O)N(CCCC(=O)Nc1ccc(-c3ccccc3)cn1)C2=O | 61% | 2.79 µM
Cc1cccc2c1C(=O)N(C(C)C(=O)Nc1ccc(-c3ccccc3)cn1)C2=O (stereo not given) | 39% | > 10 µM
O=C(CCCN1C(=O)c2ccc(F)c(F)c2C1=O)Nc1ccc(-c2ccccc2)cn1 | 21% | –
Cc1cccc2c1C(=O)N(CCC(=O)Nc1ccc(-c3ccccc3)cn1)C2=O | 29% | > 10 µM
O=C(CCCN1C(=O)c2cccc(F)c2C1=O)Nc1ccc(-c2ccccc2)cn1 | 44% | –
O=C(CCCN1C(=O)c2c(F)ccc(F)c2C1=O)Nc1ccc(-c2ccccc2)cn1 | 37% | –
O=C(CCCN1C(=O)c2ccccc2C1=O)Nc1ccc(-c2ccccc2)cn1 | 34% | –
O=C(CCCN1C(=O)c2cccc([N+](=O)[O-])c2C1=O)Nc1ccc(-c2ccccc2)cn1 | 17% | –
O=C(CCCN1C(=O)c2ccc(Cl)cc2C1=O)Nc1ccc(-c2ccccc2)cn1 | 22% | –
